In publication PMC9918429, “ATX-101, a cell-penetrating protein targeting PCNA, can be safely administered as intravenous infusion in patients and shows clinical activity in a Phase 1 study” (Oncogene, 2022):
Entries after “also recorded” stand apart in the source; their conditions may differ. Ends that are not written are not given here.

Experiments:
[1] = test system: cell cultures; details: cited from earlier work
[2] = test system: patients with advanced solid tumors; test: Phase 1 first-in-human study, weekly intravenous ATX-101 infusion: adverse events, DLT, infusion-related reactions (CTCAE v4.03); type: in vivo
Procedure: Here we report results of the ATX-101 first-in-human study in patients with advanced solid tumors. This open-label, single arm Phase 1 study, consisting of two sub-studies, investigated 4 doses of ATX-101 (20, 30, 45, and 60 mg/m^2) administered intravenously every week. In a first, dose-escalation study pre-defined dose-limiting toxicities and PK were assessed (for DLT definition see Supplementary Table 1). If, after 6 weeks, no tumor progression was measured, treatment could be continued in a second, long-term follow-up study until disease progression or unacceptable toxicity with the primary objective safety/tolerability. Efficacy was a secondary endpoint in both sub-studies. The studies were registered in the Australian New Zealand Clinical Trials Registry (ANZCTR) under the following IDs: 375262 and 375319. Details on methods are given in the Supplementary information.
This Phase 1, open-label, single arm, first-in-human study consisted of two sub-studies. Study ATX101-01 was a dose escalation study in accordance with the traditional 3+3 escalation design^1. Patients were treated over 6 weeks when the first tumor assessment was done. In case of disease stabilization or tumor response, patients could continue treatment in the long-term follow-up study ATX101-02. The data analysis has been combined for both studies.
ATX-101 was administered weekly as intravenous infusion.
Due to the occurrence of infusion related reactions (IRR) in the first patient, a premedication was implemented for subsequent patients. Premedication was optimized by the Safety Monitoring Committee (SMC) during the study resulting in the final recommendation to administer corticosteroids, paracetamol, H1 and H2 inhibitors. This medication became standard practice in Cohort 3. Montelukast (anti-leukotriene) was added in Cohort 4. In addition, on each infusion day, the infusion rate had to be increased in 5 steps from 5 mg/h to a maximum of 120 mg/h.
ATX-101 was administered in 4 dosing cohorts. The starting dose was 20 mg/m², escalated to 30 mg/m², 45 mg/m² and 60 mg/m². An SMC, comprising all principal investigators and medical monitors of sponsor and CRO, recommended dose changes and modifications after the end of each completed cohort and during the entire study.
Toxicities were graded as mild, moderate, severe, life threatening or related to death using the Common Terminology Criteria for Adverse Events (CTCAE) Version 4.03. Safety assessments included the incidence of dose limiting toxicities (DLTs), treatment-emergent adverse events (TEAE), laboratory parameters, ECG, performance status, physical examinations. DLT were defined upfront, the DLT period included the first three treatment weeks.

[3] = test system: advanced solid tumors; test: Tumor assessment by investigators according to RECIST V1.1; type: in vivo, human
Procedure: Tumors were assessed by investigators according to RECIST V1.1 at baseline, after 6 weeks and every 3 months thereafter. Efficacy Population: patients with at least one tumor assessment (RECIST) after treatment start

[4] = Plasma pharmacokinetics of ATX-101 on first infusion day, non-compartmental (Phoenix WinNonlin); details: for tmax Median [Min;Max]: from infusion start
Procedure: Blood samples for a complete pharmacokinetic (PK) profile were collected on the first infusion day. On days 8, 15, and 36 samples were collected during the infusion only. Plasma trough levels were assessed on Days 3 and Day 43.
Primary PK Population: patients with at least 2 measurable plasma concentration time points after the end of infusion on D1

[5] = Full-length peptide in cell culture media after peptide addition; type: in vitro ADME; details: cell cultures, 1–2 h after the peptide addition; unpublished data
[6] = 30 mg/m^2 i.v. infusion, first infusion day, plasma, primary PK population, n = 1
[7] = 45 mg/m^2 i.v. infusion, first infusion day, plasma, primary PK population, mean (SD), n = 4
[8] = 60 mg/m^2 i.v. infusion, first infusion day, plasma, primary PK population, mean (SD), n = 6
[9] = 60 mg/m^2 i.v. infusion, first infusion day, plasma, primary PK population, mean (SD), n = 8

In the case of “Ac-MDRWLVKWKKKRKIRRRRRRRRRRR (N-terminus assumed) [ATX-101]”, the “Duration of activity (inhibition of growth, increased apoptosis) after addition of the peptide” value [1] is given as “up to five days”, the “TEAE: Upper respiratory tract infection” value ([2]; Overall (n=25), Any Grade) is given as 3 (12.0) n (%) and the “TEAE: Abdominal pain upper” value ([2]; Overall (n=25), Grade 3) is given as 1 (4.0) n (%). The “TEAE: Anemia” value ([2]; Overall (n=25), Grade 3) was 4 (16.0) n (%), the “TEAE: Fatigue” value ([2]; Overall (n=25), Grade 3) was 1 (4.0) n (%) and the “TEAE: Hyperglycemia” value ([2]; Overall (n=25), Grade 3) was 2 (8.0) n (%). The “TEAE: Patients with at least one event” value ([2]; Overall (n=25), Grade 3) was 15 (60.0) n (%), the “Patients with infusion-related reactions (mild and moderate)” value ([2]; all 25 patients, 20-60 mg/m^2 weekly, despite premedication and stepwise infusion rate) was 64% and the “TEAE of CTCAE grade 4/5” value ([2]; all cohorts (n=25)) was “CTCAEs grade 4/5 were not observed”. The Maximum tolerated dose ([2]; doses up to 60 mg/m^2 weekly) was “not reached”, the “Dose-limiting toxicities (DLT)” value ([2]; in vivo) was “not observed” and the “IRR Grade 1 (mild), number of patients with IRR” value ([2]; in vivo) was 9 (36.0) n (%). The “IRR Grade 1 (mild), total number of IRRs” value ([2]; in vivo) was 17 N, the “IRR Grade 2 (moderate), number of patients with IRR” value ([2]; in vivo) was 13 (52.0) n (%) and the “IRR Grade 2 (moderate), total number of IRRs” value ([2]; in vivo) was 45 N. For the same substance, the “IRR any grade, total number of IRRs” value ([2]; in vivo) was 62 N, the “IRR: Patients with at least one event, number of patients with IRR” value ([2]; in vivo) was 16 (64.0) n (%) and the “Patients with IRR in whom IRR was seen on the first infusion day” value ([2]; in vivo) was 83%. For the same substance, the “TEAE: Abdominal pain upper” value ([2]; in vivo) was 3 (12.0) n (%), the “TEAE: Anemia” value ([2]; in vivo) was 8 (32.0) n (%) and the “TEAE: Diarrhea” value ([2]; in vivo) was 7 (28.0) n (%). The “TEAE: Dysgeusia” value ([2]; in vivo) was 3 (12.0) n (%), the “TEAE: Erythema” value ([2]; in vivo) was 3 (12.0) n (%) and the “TEAE: Fatigue” value ([2]; in vivo) was 12 (48.0) n (%). The “TEAE: Headache” value ([2]; in vivo) was 3 (12.0) n (%), the “TEAE: Hyperglycemia” value ([2]; in vivo) was 3 (12.0) n (%) and the “TEAE: Infusion related reactions” value ([2]; in vivo) was 16 (64.0) n (%). The “TEAE: Insomnia” value ([2]; in vivo) was 3 (12.0) n (%), the “TEAE: Nausea” value ([2]; in vivo) was 4 (16.0) n (%) and the “TEAE: Patients with at least one event” value ([2]; in vivo) was 25 (100.0) n (%). For the same substance, the “TEAE: Pyrexia” value ([2]; in vivo) was 4 (16.0) n (%), the “TEAE: Vascular access site bruising” value ([2]; in vivo) was 3 (12.0) n (%) and the “Treatment-related TEAE: Anemia” value ([2]; in vivo) was 2 (8.0) n (%). The “Treatment-related TEAE: Diarrhea” value ([2]; in vivo) was 4 (16.0) n (%), the “Treatment-related TEAE: Dysgeusia” value ([2]; in vivo) was 3 (12.0) n (%) and the “Treatment-related TEAE: Erythema” value ([2]; in vivo) was 2 (8.0) n (%). The “Treatment-related TEAE: Fatigue” value ([2]; in vivo) was 8 (32.0) n (%), the “Treatment-related TEAE: Flushing” value ([2]; in vivo) was 2 (8.0) n (%) and the “Treatment-related TEAE: Hyperglycemia” value ([2]; in vivo) was 2 (8.0) n (%). The “Treatment-related TEAE: Infusion-related reactions” value ([2]; in vivo) was 16 (64.0) n (%), the “Treatment-related TEAE: Patients with at least 1 event” value ([2]; in vivo) was 23 (92.0) n (%) and the “Treatment-related adverse events of grade 3” value ([2]; in vivo) was “one grade 3 adverse event”. For the same substance, the “Vital signs, ECG, and laboratory values” ([2]; in vivo) was “didn’t show a trend of changes”, the “Recommended phase 2 dose (RP2D), monotherapy” value ([2]; in vivo, iv) was 60 mg/m^2 and the “Median time to treatment discontinuation” value ([3]; 12 patients of long-term follow-up study, range [7–74]) was 18 weeks. For the same substance, the “Stable disease at the end of the dose escalation study” value ([3]; Efficacy Population (n = 20), after 6 weeks, RECIST V1.1) was 70%, the “Disease stabilization over at least 4.1 months” value (“Disease stabilization over” for short) ([3]; Efficacy Population, Cohort 1 (20 mg/m^2)) was 50% and the “Disease stabilization over” value ([3]; Efficacy Population, Cohort 2 (30 mg/m^2)) was 33.3%. For the same substance, the “Disease stabilization over” value ([3]; Efficacy Population, Cohort 3 (45 mg/m^2)) was 50%, the “Disease stabilization over” value ([3]; Efficacy Population, Cohort 4 (60 mg/m^2)) was 33.3% and the “Partial or complete tumor responses” value ([3]; Efficacy Population, RECIST V1.1) was “No tumor responses were observed; also recorded: No partial or complete responses were observed”. The “Stable disease at treatment discontinuation” value ([3]; long-term follow-up, 5 of 12 patients) was 41.7%, the “Progressive disease at treatment discontinuation” value ([3]; long-term follow-up, 7 of 12 patients) was 58.3% and the “tmax Median [Min;Max]” value ([4]; 20 mg/m^2 i.v. infusion, first infusion day, plasma, primary PK population, n = 1) was 2.02 [N/A] h. The “tmax Median [Min;Max]” value [4, 6] was 2.98 [N/A] h, the CL [4, 6] was 14,400 mL/h/m^2 and the Vz [4, 6] was 7970 mL/m^2. For the same substance, the kel [4, 6] was 1.81 h⁻¹, the “tmax Median [Min;Max]” value ([4]; 45 mg/m^2 i.v. infusion, first infusion day, plasma, primary PK population, median [min;max], n = 4) was 2.37 [1.32;2.82] h and the AUC0-t [4, 7] was 1980 (427) h × ng/mL. The AUC(0-inf) [4, 7] was 2200 (591) h × ng/mL, the CL [4, 7] was 21,500 (6120) mL/h/m^2 and the Cmax [4, 7] was 1150 (166) ng/mL. For the same substance, the Vz [4, 7] was 13,100 (6830) mL/m^2, the kel [4, 7] was 2.25 (1.57) /h and the “tmax Median [Min;Max]” value ([4]; 60 mg/m^2 i.v. infusion, first infusion day, plasma, primary PK population, median [min;max], n = 8) was 4.75 [1.60;9.12] h. The CL [4, 8] was 17,800 (5880) mL/h/m^2, the MRT0-inf [4, 8] was 1.54 (0.66) h and the Vz [4, 8] was 12,900 (5520) mL/m^2. For the same substance, the kel [4, 8] was 1.51 (0.46) /h, the AUC0-t [4, 9] was 3320 (1260) h × ng/mL and the Cmax [4, 9] was 1320 (815) ng/mL. The “Elimination half-life in blood” value ([4]; all dose levels (20, 30, 45, 60 mg/m^2)) was “less than 30 min”, the AUC0-t ([4]; human, plasma, iv, 20 mg/m2) was 666 ng·h/mL and the Cmax ([4]; human, plasma, iv, 20 mg/m2) was 468 ng/mL. The AUC0-t ([4]; human, plasma, iv, 30 mg/m2) was 1900 ng·h/mL, the AUC(0-inf) ([4]; human, plasma, iv, 30 mg/m2) was 2080 ng·h/mL and the Cmax ([4]; human, plasma, iv, 30 mg/m2) was 720 ng/mL. It also gave an MRT ([4]; human, plasma, iv, 30 mg/m2) of 36.7 min, an MRT ([4]; human, plasma, iv, 45 mg/m2) of 53.3 min and an AUC(0-inf) ([4]; human, plasma, iv, 60 mg/m2) of 3700 ng·h/mL. The “Full-length peptide in the culture media” value [5] was “no full-length peptide was found”.
